Series [1] has as its system DCLK1 positive cancer cells (CSCs). Put plainly: In vitro relapse assay (spheroid re-growth from cancer stem cells). Type of series: cell-based. An excerpt: In certain embodiments an expression vector can be used to provide an inhibitory RNA to a cell in vitro or in vivo. […] Thus accumulating evidence from literature and from our laboratory strongly supports a critical role of DCLK1 in cancer stem cell biology.

A further series relates to COL3A1 promoter. Put plainly: Promoter activity of COL3A1 constructs in HCT116 cells. The format is cell-based, human. The note with it: C-Luciferase reporter, FIG. 14. An excerpt: FIG. 14 HTS Bioassay: (A) RT-PCR analysis of COL3A1 in ShC and ShD clones (5′upstream nucleotide sequence of COL3A1 gene is provided in SEQ ID NO:10). (B) The map of the promoter constructs fused to secretable Cypridina Luciferase (C-Luciferase). (C) The flow diagram of the method used to measure the promoter activity of COL3A1 constructs in HCT116 cells. (D) The promoter activity of COL3A1 constructs in HCT116 cells.
The inventors developed bioassays for […] (HTS), using promoter-reporter constructs of genes identified as being down stream of DCLK1-S, but not DCLK1-L (FIG. 15). As an example of the bioassays developed, the inventors generated promoter-reporter constructs of COL3A1 gene in pCLuc-BASIC-2 vector, based on published sequence of the Col3A1 gene (FIG. 14A-14C) and transiently transfected ShC/ShD clones of HCT-116 cells, as per protocol shown in FIG. 14D. […] Data obtained from the HTS assays with the specific bioassays will help identify specific molecules from available chemical libraries, which will then allow the development of safe and effective drugs for inhibiting tumorigenic/metastatic potential of cancer stem cells, while sparing the functions of normal stem cells in intestinal crypts, as a non-toxic treatment strategy for colorectal/pancreatic cancers, and other cancers as well, which are found to be dependent on the expression of DCLK1-S.
For orientation: Reporter assays use an easily measured gene product as a stand-in for the process of interest.

For series [2], the system named is 5′ promoter of DCLK1 gene (L-DCLK1 expression). Put plainly: RT-PCR expression of L/S DCLK1 in HCT-116 cells before or after 5-Aza-Cytidine. Type of series: cell-based, human. The conditions noted are these: FIG. 12B. From the text:
FIG. 12 (A) Methylation of CpG sites in 5′-promoter of DCLK1-gene in cell lines/human samples; NC=normal colon; CRC=colorectal cancer. (B) Expression of L/S DCLK1 in HCT-116 cells before (−) or after (+) treatment with 5-Aza-Cytidine by RT-PCR.
Recent reports have confirmed DNA methylation of 5′ promoter of DCLK1 gene in CRCs (Vedeld et al. Epigenetics 2014, 9(3).30). Thus, DNA methylation of 5′ promoter leads to epigenetic silencing and loss of L expression in cancer cells/tumors.

For `COc1cc(/C=C/C(=O)CC(=O)/C=C/c2ccc(O)c(OC)c2)ccc1O` [curcumin], the relapse/re-growth of spheroids result in series [1] was “underwent autophagic survival and re-grew (relapse) as spheroids”.

Take “shRNA: DCLK1 targeting shRNA; shrna sequence ATCGTTCTGTTATTGTAGC in pGZIP Lentiviral vector (ShD clones) (pGZIP lentiviral vector)”: in the series with COL3A1 promoter, the “promoter activity of COL3A1 constructs” value is “loss of promoter activity”. In series [1], the relapse/re-growth of spheroids result is recorded as “eliminated relapse/re-growth of spheroids”.

`Nc1ncn([C@@H]2O[C@H](CO)[C@@H](O)[C@H]2O)c(=O)n1` [5 aza cytidine]: the “expression of L-DCLK1” value in series [2] is reported as “re-expression of L-DCLK1”.

(Values after US20140315754A1, “METHODS AND COMPOSITIONS FOR ASSESSING AND TREATING CANCER” (The Board of Regents of the University of Texas System, priority 2013, published 2014).)
